The record followed here is patent publication US8268845B2, “Tetrahydro- and dihydroquinazolinones” (Merck Patent GmbH, priority 2005, dated 2012).

Molecules are shown by their SMILES.

On to `O=c1[nH]c(N2CCNCC2)nc2c1CCCC2`, for which the melting point came to 121 °C.

Turning to `CN1CCN(c2nc3c(c(=O)[nH]2)CCCC3)CC1`, the melting point came to 210 °C.

With `O=c1[nH]c(-c2ccc(Cl)cc2)nc2c1C=CCC2` [formula 6b, 2-(p-Chlorophenyl)-7,8-dihydroquinazolin-4(3H)-one], the melting point was above 250 °C.

As for `O=c1[nH]c(-c2ccccc2F)nc2c1C=CCC2` [formula 6d, 2-(o-Fluorophenyl)-7,8-dihydroquinazolin-4(3H)-one], the melting point was determined as 191 °C. For `CSc1nc2c(c(=O)[nH]1)C=CCC2` [formula 6g, 2-Methylthio-7,8-dihydroquinazolin-4(3H)-one], the melting point is 214 °C. `O=c1[nH]c(-c2ccccc2)nc2c1CCCC2` [formula 7a, 2-Phenyl-5,6,7,8-tetrahydroquinazolin-4(3H)-one] registered a melting point of 224 °C.

`O=c1[nH]c(-c2ccc(Cl)cc2)nc2c1CCCC2` [formula 7b, 2-(p-Chlorophenyl)-5,6,7,8-tetrahydroquinazolin-4(3H)-one]: the melting point is 255 °C. `O=c1[nH]c(-c2ccccc2F)nc2c1CCCC2` [formula 7d, 2-(o-Fluorophenyl)-5,6,7,8-tetrahydroquinazolin-4(3H)-one]: the melting point amounted to 170 °C.

`CC1CCc2nc(-c3ccccc3)[nH]c(=O)c2C1` (centres unmarked) [formula 10a, 6-Methyl-2-phenyl-5,6,7,8-tetrahydroquinazolin-4(3H)-one] came in with a melting point of 237 °C. Regarding `CCC1CCc2nc(-c3ccccc3)[nH]c(=O)c2C1` (centres unmarked) [formula 10b, 6-Ethyl-2-phenyl-5,6,7,8-tetrahydroquinazolin-4(3H)-one], the melting point was 221 °C.

`CC1=Cc2c(nc(-c3ccccc3)[nH]c2=O)CC1` [formula 11a, 6-Methyl-2-phenyl-7,8-dihydroquinazolin-4(3H)-one]: the melting point worked out at 218 °C. The same measure for `CCC1=Cc2c(nc(-c3ccccc3)[nH]c2=O)CC1` [formula 11b, 6-Ethyl-2-phenyl-7,8-dihydroquinazolin-4(3H)-one]: 198 °C.

`O=c1[nH]c(N2CCN(Cc3ccccc3)CC2)nc2c1CC(S(=O)(=O)c1ccccc1)CC2` (centres unmarked) [formula 13b, 2-(4-benzylpiperazin-1-yl)-6-Benzenesulfonyl-5,6,7,8-tetrahydroquinazolin-4(3H)-one] showed a melting point above 250 °C. The compound `CN1CCN(c2nc3c(c(=O)[nH]2)CC(S(=O)(=O)c2ccccc2)CC3)CC1` (centres unmarked) [formula 13c, 6-Benzenesulfonyl-2-(4-methylpiperazin-1-yl)-5,6,7,8-tetrahydroquinazolin-4(3H)-one] returned a melting point above 250 °C.
